Here are results for one molecule from PMC5218480 (PLoS ONE, 2017).

In the assay the test system is MV-4-11 cells. Kind of assay: Gene expression microarray analysis (Affymetrix PrimeView) and GSEA. It is filed as cell-based, human. Set-up: RFU PODN (11730768_x_at) / Fold change /veh PODN (11730768_x_at) / RFU LINC00158 (11744669_a_at) / Fold change /veh LINC00158 (11744669_a_at) / RFU DUSP10 (11751237_a_at) / Fold change /veh DUSP10 (11751237_a_at) / RFU ID3 (11757404_x_at) / Fold change /veh ID3 (11757404_x_at) / RFU PLEKHG5 (11737974_s_at) / Fold change /veh PLEKHG5 (11737974_s_at) / RFU LRRC4B (11730491_at) / Fold change /veh LRRC4B (11730491_at) / RFU GIMAP4 (11747438_a_at) / Fold change /veh GIMAP4 (11747438_a_at) / RFU KRT8 (11758183_x_at) / Fold change /veh KRT8 (11758183_x_at) / RFU CNN1 (11734310_a_at) / Fold change /veh CNN1 (11734310_a_at) / RFU VPS37D (11726825_at) / Fold change /veh VPS37D (11726825_at) / RFU C10orf10 (11716522_x_at) / Fold change /veh C10orf10 (11716522_x_at) / RFU KIR2DL2 /// KIR2DL4 /// KIR2DL5A /// KIR2DL5B /// KIR2DS1 /// KIR2DS2 /// KIR2DS3 /// KIR2DS4 /// KIR3DL3 /// KIR3DL3 /// KIR3DS1 (11738374_at) / Fold change /veh KIR2DL2 /// KIR2DL4 /// KIR2DL5A /// KIR2DL5B /// KIR2DS1 /// KIR2DS2 /// KIR2DS3 /// KIR2DS4 /// KIR3DL3 /// KIR3DL3 /// KIR3DS1 (11738374_at) / RFU C1QL1 (11718748_at) / Fold change /veh C1QL1 (11718748_at) / RFU TMPRSS4 (11747572_a_at) / Fold change /veh TMPRSS4 (11747572_a_at) / RFU HAMP (11756126_x_at) / Fold change /veh HAMP (11756126_x_at) / RFU RNFT2 (11725882_a_at) / Fold change /veh RNFT2 (11725882_a_at) / RFU NR4A2 (11747474_a_at) / Fold change /veh NR4A2 (11747474_a_at) / RFU ABCC12 (11746883_a_at) / Fold change /veh ABCC12 (11746883_a_at) / RFU TMEM136 (11760407_x_at) / Fold change /veh TMEM136 (11760407_x_at) / RFU CLDN22 /// WWC2 (11732394_at) / Fold change /veh CLDN22 /// WWC2 (11732394_at) / RFU HLA-DPB1 (11760878_x_at) / Fold change /veh HLA-DPB1 (11760878_x_at) / RFU SPINT1 (11716480_a_at) / Fold change /veh SPINT1 (11716480_a_at) / RFU GAP43 (11754022_s_at) / Fold change /veh GAP43 (11754022_s_at) / RFU A4GNT (11735810_at) / Fold change /veh A4GNT (11735810_at) / RFU PRB3 (11715151_x_at) / Fold change /veh PRB3 (11715151_x_at) / RFU TUBB4B (11761932_at) / Fold change /veh TUBB4B (11761932_at) / RFU CAPN14 (11732068_a_at) / Fold change /veh CAPN14 (11732068_a_at) / RFU TMCC2 (11721928_a_at) / Fold change /veh TMCC2 (11721928_a_at) / RFU IRGQ (11745062_a_at) / Fold change /veh IRGQ (11745062_a_at) / RFU FAM174B (11720279_a_at) / Fold change /veh FAM174B (11720279_a_at) / RFU TMPRSS4 (11748680_a_at) / Fold change /veh TMPRSS4 (11748680_a_at) / RFU FAM212B (11763350_a_at) / Fold change /veh FAM212B (11763350_a_at) / RFU PLEKHG5 (11743358_a_at) / Fold change /veh PLEKHG5 (11743358_a_at) / RFU ZSCAN30 (11745921_a_at) / Fold change /veh ZSCAN30 (11745921_a_at) / RFU CMKLR1 (11741424_a_at) / Fold change /veh CMKLR1 (11741424_a_at) / RFU LOC101060620 /// MAPK8IP1 (11723275_at) / Fold change /veh LOC101060620 /// MAPK8IP1 (11723275_at) / RFU SPTSSB (11747773_x_at) / Fold change /veh SPTSSB (11747773_x_at) / RFU PRSS12 (11739890_at) / Fold change /veh PRSS12 (11739890_at) / RFU BIN1 (11741810_x_at) / Fold change /veh BIN1 (11741810_x_at) / RFU WNT11 (11732464_a_at) / Fold change /veh WNT11 (11732464_a_at) / RFU C10orf10 (11716521_a_at) / Fold change /veh C10orf10 (11716521_a_at) / RFU C5orf56 (11738089_at) / Fold change /veh C5orf56 (11738089_at) / RFU CYB561 (11721691_x_at) / Fold change /veh CYB561 (11721691_x_at) / RFU ANKRD19P (11752326_a_at) / Fold change /veh ANKRD19P (11752326_a_at) / RFU OR2T12 /// OR2T33 /// OR2T8 (11738714_s_at) / Fold change /veh OR2T12 /// OR2T33 /// OR2T8 (11738714_s_at) / RFU VCAN (11748164_a_at) / Fold change /veh VCAN (11748164_a_at) / RFU JSRP1 (11732532_at) / Fold change /veh JSRP1 (11732532_at) / RFU KRTAP10-11 (11738290_x_at) / Fold change /veh KRTAP10-11 (11738290_x_at) / RFU MYO3A (11730013_a_at) / Fold change /veh MYO3A (11730013_a_at) / RFU EBF3 (11725865_a_at) / Fold change /veh EBF3 (11725865_a_at) / RFU CAMK2N1 (11719241_x_at) / Fold change /veh CAMK2N1 (11719241_x_at) / RFU C5orf56 (11738088_a_at) / Fold change /veh C5orf56 (11738088_a_at) / RFU OLFML3 (11715873_a_at) / Fold change /veh OLFML3 (11715873_a_at) / RFU LOC100653217 /// NTM (11731650_a_at) / Fold change /veh LOC100653217 /// NTM (11731650_a_at) / RFU MAPK11 (11762145_a_at) / Fold change /veh MAPK11 (11762145_a_at) / RFU FIZ1 (11724087_x_at) / Fold change /veh FIZ1 (11724087_x_at) / RFU OASL (11726364_x_at) / Fold change /veh OASL (11726364_x_at) / RFU SOX15 (11748057_x_at) / Fold change /veh SOX15 (11748057_x_at) / RFU CD79A (11719716_a_at) / Fold change /veh CD79A (11719716_a_at) / RFU HIST1H1D (11736915_at) / Fold change /veh HIST1H1D (11736915_at) / RFU CASKIN2 (11723855_a_at) / Fold change /veh CASKIN2 (11723855_a_at) / RFU LOC730098 (11760151_x_at) / Fold change /veh LOC730098 (11760151_x_at) / RFU OR4N2 (11742367_at) / Fold change /veh OR4N2 (11742367_at) / RFU PRRT2 (11749266_a_at) / Fold change /veh PRRT2 (11749266_a_at) / RFU SNX32 (11753110_a_at) / Fold change /veh SNX32 (11753110_a_at) / RFU CDHR5 (11726645_a_at) / Fold change /veh CDHR5 (11726645_a_at) / RFU RCAN1 (11760418_a_at) / Fold change /veh RCAN1 (11760418_a_at) / RFU FAM167A (11723789_a_at) / Fold change /veh FAM167A (11723789_a_at) / RFU FAM26E (11764081_at) / Fold change /veh FAM26E (11764081_at) / RFU ISYNA1 (11749810_s_at) / Fold change /veh ISYNA1 (11749810_s_at) / RFU ACY1 (11761880_at) / Fold change /veh ACY1 (11761880_at) / RFU 11764098_at / Fold change /veh 11764098_at / RFU SAMD14 (11745864_x_at) / Fold change /veh SAMD14 (11745864_x_at) / RFU NPB (11741838_a_at) / Fold change /veh NPB (11741838_a_at) / RFU TMPRSS6 (11731388_a_at) / Fold change /veh TMPRSS6 (11731388_a_at) / RFU KRTAP10-2 (11738614_at) / Fold change /veh KRTAP10-2 (11738614_at) / RFU ARHGAP8 /// PRR5-ARHGAP8 (11727945_x_at) / Fold change /veh ARHGAP8 /// PRR5-ARHGAP8 (11727945_x_at) / RFU KRTAP5-7 /// NADSYN1 (11734609_at) / Fold change /veh KRTAP5-7 /// NADSYN1 (11734609_at) / RFU RASL12 (11751679_a_at) / Fold change /veh RASL12 (11751679_a_at) / RFU CDKN2B (11736163_a_at) / Fold change /veh CDKN2B (11736163_a_at) / RFU PRF1 (11729649_at) / Fold change /veh PRF1 (11729649_at) / RFU, ZNF638 /// ZNF638-IT1 / Fold change vs veh, ZNF638 /// ZNF638-IT1 / RFU, PANK3 / Fold change vs veh, PANK3 / RFU, SH3YL1 / Fold change vs veh, SH3YL1 / RFU, ZEB2 / Fold change vs veh, ZEB2 / RFU, NRIP1 / Fold change vs veh, NRIP1 / RFU, PTTG1IP / Fold change vs veh, PTTG1IP / RFU, CAPN2 / Fold change vs veh, CAPN2 / RFU, MED14 / Fold change vs veh, MED14 / RFU, SNORA58 / Fold change vs veh, SNORA58 / RFU, C1orf63 / Fold change vs veh, C1orf63 / RFU, LRRFIP1 / Fold change vs veh, LRRFIP1 / RFU, NDUFAF7 / Fold change vs veh, NDUFAF7 / RFU, SLC12A2 / Fold change vs veh, SLC12A2 / RFU, IBTK / Fold change vs veh, IBTK / RFU, ESF1 / Fold change vs veh, ESF1 / Fold change vs veh, TMEM50B / RFU, TAOK1 / Fold change vs veh, TAOK1 / RFU, ACBD3 / Fold change vs veh, ACBD3 / RFU, TMA16 / Fold change vs veh, TMA16 / RFU, RWDD3 / Fold change vs veh, RWDD3 / RFU, BCAT1 / Fold change vs veh, BCAT1 / RFU, EDEM3 / Fold change vs veh, EDEM3 / RFU, TMEM33 / Fold change vs veh, TMEM33 / RFU, WDR75 / Fold change vs veh, WDR75 / RFU, AHCTF1 / Fold change vs veh, AHCTF1 / RFU, TFRC / Fold change vs veh, TFRC / RFU, ZDHHC17 / Fold change vs veh, ZDHHC17 / RFU, NOM1 / Fold change vs veh, NOM1 / RFU, ARL8B / Fold change vs veh, ARL8B / RFU, ZBTB11 / Fold change vs veh, ZBTB11 / RFU, TAMM41 / Fold change vs veh, TAMM41 / RFU, KIAA1704 /// LOC100996395 / Fold change vs veh, KIAA1704 /// LOC100996395 / RFU, ING1 / Fold change vs veh, ING1 / RFU, TRMT61B / Fold change vs veh, TRMT61B / RFU, FUBP3 / Fold change vs veh, FUBP3 / RFU, TP53 / Fold change vs veh, TP53 / RFU, TNKS2 / Fold change vs veh, TNKS2 / RFU, ZFP14 / Fold change vs veh, ZFP14 / RFU, ACTR2 / Fold change vs veh, ACTR2 / RFU, PPP3R1 / Fold change vs veh, PPP3R1 / RFU, PIK3R1 / Fold change vs veh, PIK3R1 / RFU, HNRNPA1 / Fold change vs veh, HNRNPA1 / RFU, RNF170 / Fold change vs veh, RNF170 / RFU, ZNF28 / Fold change vs veh, ZNF28 / RFU, RNGTT / Fold change vs veh, RNGTT / RFU, OGT / Fold change vs veh, OGT / RFU, BRD1 / Fold change vs veh, BRD1 / RFU, MARS / Fold change vs veh, MARS / RFU, ZNF655 / Fold change vs veh, ZNF655 / RFU, FAHD1 / Fold change vs veh, FAHD1 / RFU, BDP1 / Fold change vs veh, BDP1 / RFU, LRRCC1 / Fold change vs veh, LRRCC1 / RFU, ARID1A / Fold change vs veh, ARID1A / RFU, ZNF146 / Fold change vs veh, ZNF146 / RFU, ZNF330 / Fold change vs veh, ZNF330 / RFU, GPN3 / Fold change vs veh, GPN3 / RFU, C9orf123 / Fold change vs veh, C9orf123 / RFU, N4BP2L2 / Fold change vs veh, N4BP2L2 / RFU, ARFIP1 / Fold change vs veh, ARFIP1 / RFU, FAM179B / Fold change vs veh, FAM179B / RFU, BCL10 / Fold change vs veh, BCL10 / RFU, UHRF1BP1L / Fold change vs veh, UHRF1BP1L / RFU, BET1 / Fold change vs veh, BET1 / RFU, CNOT2 / Fold change vs veh, CNOT2 / RFU, ZNF268 / Fold change vs veh, ZNF268 / Fold change vs veh, ZNF507 / RFU, DGCR2 / Fold change vs veh, DGCR2 / RFU, WDSUB1 / Fold change vs veh, WDSUB1 / Fold change vs veh, HSP90B1 /// MIR3652 / RFU, ADSS / Fold change vs veh, ADSS / RFU, GK / Fold change vs veh, GK / RFU, ZNF148 / Fold change vs veh, ZNF148 / RFU, TAF9 / Fold change vs veh, TAF9 / RFU, SLC1A5 / Fold change vs veh, SLC1A5 / RFU, SLMO2 / Fold change vs veh, SLMO2 / RFU, ABCC4 / Fold change vs veh, ABCC4 / RFU, LOC101060439 /// RAP1B / Fold change vs veh, LOC101060439 /// RAP1B / RFU, RFX7 / Fold change vs veh, RFX7 / RFU, GTPBP10 / Fold change vs veh, GTPBP10 / RFU, CNEP1R1 / Fold change vs veh, CNEP1R1 / RFU, BIVM-ERCC5 /// ERCC5 / Fold change vs veh, BIVM-ERCC5 /// ERCC5 / RFU, ILF3 / Fold change vs veh, ILF3 / RFU 11762660_at / Fold change /veh 11762660_at / RFU VCAN (11757783_s_at) / Fold change /veh VCAN (11757783_s_at) / RFU DDX43 (11728927_at) / Fold change /veh DDX43 (11728927_at) / RFU KRT8 (11758188_x_at) / Fold change /veh KRT8 (11758188_x_at) / RFU NKD1 (11759106_at) / Fold change /veh NKD1 (11759106_at) / RFU SRD5A1 (11742802_a_at) / Fold change /veh SRD5A1 (11742802_a_at) / RFU TPSAB1 /// TPSB2 (11721975_s_at) / Fold change /veh TPSAB1 /// TPSB2 (11721975_s_at) / RFU GSTM3 (11746129_a_at) / Fold change /veh GSTM3 (11746129_a_at) / RFU IL23R (11737362_x_at) / Fold change /veh IL23R (11737362_x_at) / RFU TMEM51 (11727254_a_at) / Fold change /veh TMEM51 (11727254_a_at) / RFU PIWIL2 (11732686_x_at) / Fold change /veh PIWIL2 (11732686_x_at) / RFU ORM1 (11744905_x_at) / Fold change /veh ORM1 (11744905_x_at) / RFU CCDC152 (11743942_at) / Fold change /veh CCDC152 (11743942_at) / RFU ECM1 (11717891_a_at) / Fold change /veh ECM1 (11717891_a_at) / RFU IL23R (11748794_a_at) / Fold change /veh IL23R (11748794_a_at) / RFU TNFAIP8L3 (11732012_x_at) / Fold change /veh TNFAIP8L3 (11732012_x_at) / RFU MBOAT4 (11741988_at) / Fold change /veh MBOAT4 (11741988_at) / RFU 11764193_at / Fold change /veh 11764193_at / RFU TMEM53 (11763286_at) / Fold change /veh TMEM53 (11763286_at) / RFU MAGEB2 (11727129_at) / Fold change /veh MAGEB2 (11727129_at) / RFU TMEM200A (11744735_a_at) / Fold change /veh TMEM200A (11744735_a_at) / RFU CCDC152 (11751479_a_at) / Fold change /veh CCDC152 (11751479_a_at) / RFU FAM211A (11726209_a_at) / Fold change /veh FAM211A (11726209_a_at) / RFU RGS16 (11746705_a_at) / Fold change /veh RGS16 (11746705_a_at) / RFU VCAN (11755009_s_at) / Fold change /veh VCAN (11755009_s_at) / RFU RHOB (11743442_s_at) / Fold change /veh RHOB (11743442_s_at) / RFU RGS16 (11720943_a_at) / Fold change /veh RGS16 (11720943_a_at) / RFU RGS16 (11720944_at) / Fold change /veh RGS16 (11720944_at) / RFU, VPS4B / Fold change vs veh, VPS4B / RFU, CREB1 / Fold change vs veh, CREB1 / RFU, DNAJC13 / Fold change vs veh, DNAJC13 / RFU, GNAQ / Fold change vs veh, GNAQ / RFU, CDK5R1 / Fold change vs veh, CDK5R1 / RFU, ZRANB3 / Fold change vs veh, ZRANB3 / RFU, CUL4A / Fold change vs veh, CUL4A / RFU, CCNY / Fold change vs veh, CCNY / RFU, UFL1 / Fold change vs veh, UFL1 / RFU, COG3 / Fold change vs veh, COG3 / RFU, DIAPH2 / Fold change vs veh, DIAPH2 / RFU, SKA2 / Fold change vs veh, SKA2 / RFU, AFF3 / Fold change vs veh, AFF3 / RFU, LMF1 / Fold change vs veh, LMF1 / RFU, IPO11 / Fold change vs veh, IPO11 / RFU, DFFB / Fold change vs veh, DFFB / RFU, FOXP1 / Fold change vs veh, FOXP1 / RFU, CARD8 / Fold change vs veh, CARD8 / RFU, STRN3 / Fold change vs veh, STRN3 / RFU, ADK / Fold change vs veh, ADK / RFU, RASSF2 / Fold change vs veh, RASSF2 / RFU, WIPF1 / Fold change vs veh, WIPF1 / RFU, LARP1B / Fold change vs veh, LARP1B / RFU, RASA1 / Fold change vs veh, RASA1 / RFU, RB1 / Fold change vs veh, RB1 / RFU, PPFIA1 / Fold change vs veh, PPFIA1 / RFU, MAT2A / Fold change vs veh, MAT2A / RFU, CCT5 / Fold change vs veh, CCT5 / RFU, WDR92 / Fold change vs veh, WDR92 / RFU, CUX1 / Fold change vs veh, CUX1 / RFU, TTC7A / Fold change vs veh, TTC7A / RFU, TMEM135 / Fold change vs veh, TMEM135 / RFU, DEPTOR / Fold change vs veh, DEPTOR / RFU, CPM / Fold change vs veh, CPM / RFU, DNAJB6 / Fold change vs veh, DNAJB6 / RFU, CACNA2D3 / Fold change vs veh, CACNA2D3 / RFU, DTX4 / Fold change vs veh, DTX4 / RFU, TFCP2 / Fold change vs veh, TFCP2 / RFU, GMCL1 /// GMCL1P1 / Fold change vs veh, GMCL1 /// GMCL1P1 / RFU, AEBP2 / Fold change vs veh, AEBP2 / RFU, SNHG1 /// SNORD22 /// SNORD25 /// SNORD26 /// SNORD27 /// SNORD28 /// SNORD29 /// SNORD31 / Fold change vs veh, SNHG1 /// SNORD22 /// SNORD25 /// SNORD26 /// SNORD27 /// SNORD28 /// SNORD29 /// SNORD31 / Fold change (Aza/veh), C12orf56 (ProbeSet 11735607_a_at) / Fold change (ACY-1035/veh), C12orf56 (ProbeSet 11735607_a_at) / Fold change (Aza/veh), FGFR1OP (ProbeSet 11751329_s_at) / Fold change (ACY-1035/veh), FGFR1OP (ProbeSet 11751329_s_at) / Fold change (Aza/veh), VPS36 (ProbeSet 11739960_a_at) / Fold change (ACY-1035/veh), VPS36 (ProbeSet 11739960_a_at) / RFU SYPL1 (11715823_x_at) / Fold change /veh SYPL1 (11715823_x_at) / RFU IGFBP7 (11715501_s_at) / Fold change /veh IGFBP7 (11715501_s_at) / RFU REEP3 (11722064_at) / Fold change /veh REEP3 (11722064_at) / RFU IGLL1 (11728026_x_at) / Fold change /veh IGLL1 (11728026_x_at): dose or concentration left out as unconfirmed. The settings on record: ProbeSet 11727545_at; LIST B.

Consider `Nc1ncn([C@@H]2O[C@H](CO)[C@@H](O)[C@H]2O)c(=O)n1` [azacitidine], for which the “Fold change vs veh, PANK3” value came to 0.85.
